In ChEMBL document CHEMBL1201862, “PubChem BioAssay data set” (2004):
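In this assay, cells in 96-well plates receive the compound at five concentrations for 48 hours. Endpoints are linearly interpolated between the surrounding concentrations. At the GI50, growth is halved.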 Active and inactive are the calls of the source. Cut-off read from the data, not from the text of the source: active = GI50 up to about 1.1 µM and inactive = higher.

Assays:
Assay in all cases: NCI-60 cell line screen, 48 h
KM-20L2 = test system: KM-20L2
LXFL 529 = test system: LXFL 529
HCT-15 = test system: HCT-15
A498 = test system: A498
SNB-78 = test system: SNB-78
KM12 = test system: KM12
HOP-18 = test system: HOP-18
CAKI-1 = test system: CAKI-1
SK-MEL-28 = test system: SK-MEL-28
U-251 = test system: U-251
786-0 = test system: 786-0
HOP-92 = test system: HOP-92
DMS-114 = test system: DMS-114
HT-29 = test system: HT-29
OVCAR-5 = test system: OVCAR-5
M19-MEL = test system: M19-MEL
UACC-257 = test system: UACC-257
M14 = test system: M14
HOP-62 = test system: HOP-62
SW-620 = test system: SW-620
TK-10 = test system: TK-10
UACC-62 = test system: UACC-62
SN12C = test system: SN12C
IGROV-1 = test system: IGROV-1
OVCAR-3 = test system: OVCAR-3
LOX IMVI = test system: LOX IMVI
K562 = test system: K562
SK-MEL-5 = test system: SK-MEL-5
DMS-273 = test system: DMS-273
NCI-H226 = test system: NCI-H226
OVCAR-8 = test system: OVCAR-8
HL-60 = test system: HL-60
ACHN = test system: ACHN
OVCAR-4 = test system: OVCAR-4
UO-31 = test system: UO-31
CCRF-CEM = test system: CCRF-CEM
SK-MEL-2 = test system: SK-MEL-2
NCI-H23 = test system: NCI-H23
SF-268 = test system: SF-268
NCI-H460 = test system: NCI-H460
SR = test system: SR
SK-OV-3 = test system: SK-OV-3
HCT-116 = test system: HCT-116
DLD-1 = test system: DLD-1
NCI-H522 = test system: NCI-H522
SF-295 = test system: SF-295
RXF 393 = test system: RXF 393
COLO 205 = test system: COLO 205
RPMI-8226 = test system: RPMI-8226
Malme-3M = test system: Malme-3M
SF-539 = test system: SF-539
MOLT-4 = test system: MOLT-4
SNB-75 = test system: SNB-75
A549 = test system: A549
SNB-19 = test system: SNB-19
EKVX = test system: EKVX
HCC 2998 = test system: HCC 2998

SMILES: NNc1cnn(-c2ccccc2)c(=O)c1Cl
- GI50 (KM-20L2): > 100 µM (inactive)
- GI50 (LXFL 529): > 100 µM (inactive)
- GI50 (HCT-15): > 100 µM
- GI50 (A498): > 100 µM (inactive)
- GI50 (SNB-78): > 100 µM (inactive)
- GI50 (KM12): > 100 µM (inactive)
- GI50 (HOP-18): > 100 µM (inactive)
- GI50 (CAKI-1): > 100 µM (inactive)
- GI50 (SK-MEL-28): > 100 µM (inactive)
- GI50 (U-251): > 100 µM (inactive)
- GI50 (786-0): > 100 µM (inactive)
- GI50 (HOP-92): > 100 µM (inactive)
- GI50 (DMS-114): > 100 µM (inactive)
- GI50 (HT-29): > 100 µM (inactive)
- GI50 (OVCAR-5): > 100 µM (inactive)
- GI50 (M19-MEL): > 100 µM (inactive)
- GI50 (UACC-257): > 100 µM (inactive)
- GI50 (M14): > 100 µM (inactive)
- GI50 (HOP-62): > 100 µM (inactive)
- GI50 (SW-620): > 100 µM (inactive)
- GI50 (TK-10): > 100 µM (inactive)
- GI50 (UACC-62): > 100 µM (inactive)
- GI50 (SN12C): > 100 µM (inactive)
- GI50 (IGROV-1): > 100 µM (inactive)
- GI50 (OVCAR-3): > 100 µM (inactive)
- GI50 (LOX IMVI): > 100 µM (inactive)
- GI50 (K562): > 100 µM (inactive)
- GI50 (SK-MEL-5): > 100 µM (inactive)
- GI50 (DMS-273): > 100 µM (inactive)
- GI50 (NCI-H226): > 100 µM (inactive)
- GI50 (OVCAR-8): > 100 µM (inactive)
- GI50 (HL-60): > 100 µM (inactive)
- GI50 (ACHN): > 100 µM (inactive)
- GI50 (OVCAR-4): > 100 µM (inactive)
- GI50 (UO-31): > 100 µM (inactive)
- GI50 (CCRF-CEM): > 100 µM (inactive)
- GI50 (SK-MEL-2): > 100 µM (inactive)
- GI50 (NCI-H23): > 100 µM (inactive)
- GI50 (SF-268): > 100 µM (inactive)
- GI50 (NCI-H460): > 100 µM (inactive)
- GI50 (SR): > 100 µM (inactive)
- GI50 (SK-OV-3): > 100 µM (inactive)
- GI50 (HCT-116): > 100 µM (inactive)
- GI50 (DLD-1): > 100 µM (inactive)
- GI50 (NCI-H522): > 100 µM (inactive)
- GI50 (SF-295): > 100 µM (inactive)
- GI50 (RXF 393): > 100 µM (inactive)
- GI50 (COLO 205): > 100 µM (inactive)
- GI50 (RPMI-8226): > 100 µM (inactive)
- GI50 (Malme-3M): > 100 µM (inactive)
- GI50 (SF-539): > 100 µM (inactive)
- GI50 (MOLT-4): > 100 µM (inactive)
- GI50 (SNB-75): > 100 µM (inactive)
- GI50 (A549): > 100 µM (inactive)

SMILES: COc1ccc(OC)c(/C=C(/C#N)c2ccccc2)c1
- GI50 (KM-20L2): 16.6 µM (inactive)
- GI50 (LXFL 529): 34.3 µM (inactive)
- GI50 (HCT-15): 18.9 µM
- GI50 (A498): 20.2 µM (inactive)
- GI50 (KM12): 10 µM (inactive)
- GI50 (HOP-18): > 100 µM (inactive)
- GI50 (CAKI-1): 35.1 µM (inactive)
- GI50 (SK-MEL-28): 23.4 µM (inactive)
- GI50 (U-251): 31.8 µM (inactive)
- GI50 (786-0): 19 µM (inactive)
- GI50 (HOP-92): 17.7 µM (inactive)
- GI50 (HT-29): 6.52 µM (inactive)
- GI50 (OVCAR-5): 56 µM (inactive)
- GI50 (M19-MEL): 22.2 µM (inactive)
- GI50 (M14): 33.3 µM (inactive)
- GI50 (HOP-62): 40.3 µM (inactive)
- GI50 (SW-620): 6.46 µM (inactive)
- GI50 (TK-10): 28.4 µM (inactive)
- GI50 (UACC-62): 5.32 µM (inactive)
- GI50 (SNB-19): 52 µM (inactive)
- GI50 (SN12C): 32.6 µM (inactive)
- GI50 (IGROV-1): 31.7 µM (inactive)
- GI50 (OVCAR-3): 28.2 µM (inactive)
- GI50 (LOX IMVI): 16.1 µM (inactive)
- GI50 (K562): 3.15 µM (inactive)
- GI50 (SK-MEL-5): 13.2 µM (inactive)
- GI50 (DMS-273): 4.22 µM (inactive)
- GI50 (NCI-H226): 26.9 µM (inactive)
- GI50 (OVCAR-8): 37.2 µM (inactive)
- GI50 (HL-60): 3.95 µM (inactive)
- GI50 (ACHN): 49 µM (inactive)
- GI50 (OVCAR-4): 15.9 µM (inactive)
- GI50 (CCRF-CEM): 17.5 µM (inactive)
- GI50 (SK-MEL-2): 5.82 µM (inactive)
- GI50 (NCI-H23): 23.5 µM (inactive)
- GI50 (SF-268): 34 µM (inactive)
- GI50 (NCI-H460): 15.8 µM (inactive)
- GI50 (EKVX): 30.6 µM (inactive)
- GI50 (SK-OV-3): 50 µM (inactive)
- GI50 (HCT-116): 49.3 µM (inactive)
- GI50 (DLD-1): 28.7 µM (inactive)
- GI50 (HCC 2998): > 10 µM (inactive)
- GI50 (NCI-H522): 14 µM (inactive)
- GI50 (SF-295): 39.4 µM (inactive)
- GI50 (RXF 393): 10.2 µM (inactive)
- GI50 (COLO 205): 20.5 µM (inactive)
- GI50 (RPMI-8226): 13.4 µM (inactive)
- GI50 (Malme-3M): 35.6 µM (inactive)
- GI50 (SF-539): 28.2 µM (inactive)
- GI50 (MOLT-4): 12.9 µM (inactive)
- GI50 (SNB-75): 10.8 µM (inactive)
- GI50 (A549): 13.2 µM (inactive)
